Experimental data taken from patent US10487083B2, “Small molecule inhibitors of the JAK family of kinases” (Janssen Pharmaceutica NV, priority 2016, dated 2019).
Blank lines part the entries; values can stand above or below the compound they belong to.

Key:
[1] = In vivo intracolonic (i.c.) dosing, plasma and colon concentrations (Protocol 3); design: species or system C57BL/6 mice; key to Plasma Concentration After i.c. Dosing, Mean: ^: Mean was not calculated as the values for all three mice were below the lower limit of quantitation; details: for Plasma Concentration After i.c. Dosing, Mean: 5 mg/kg intracolonic, female C57BL/6 mice; for systemic exposure after i.c. dosing: mice
Description: Plasma and colon concentration results were obtained by following Protocol 1 using venipuncture of dorsal metatarsal vein bleed for Compounds (B), (C), and Examples 6 and 11. Plasma and colon concentration results were obtained by following Protocol 2 using retro-orbital bleed for Compounds (A), and Examples 1, and 3-5 and Protocol 2 using venipuncture of the dorsal metatarsal vein for Examples 2, 7-10, and 12. Plasma and colon concentration results were obtained by following Protocol 3 for Examples 1, 3 and 4. These protocols are described below under the heading In vivo Studies.
Intracolonic (IC) dose group: Following anesthesia with isoflurane by inhalation, three non-fasted female C57BL/6 mice were administered the compound intracolonically through a small incision in the abdominal wall using a syringe and needle at a dose of 5 mg/kg as a solution in 20% HPβCD at a dose volume of 1 mL/kg. Blood samples were collected at 0.5, 2, and 4 h post dose via retro-orbital bleed. Blood samples were collected into tubes containing anticoagulant (Heparin-Na) and placed on wet ice. The plasma fraction was separated by centrifugation and frozen at −20° C. for up to 4 h and −80° C. after 4 h unless analyzed shortly after sample collection. Colon samples were collected at 4 h post dose. From 2 cm below the cecum, a 4-cm sample of the colon was dissected, cut open on the longitudinal axis, and the solid contents removed by flushing with 2 mL of saline. The colon was further washed by putting it in 5 mL of saline and shaken for 5 seconds. The colon sample was then patted dry, weighed, and homogenized as 1 part tissue (g) to 4 parts HPLC grade water (mL). Concentrations of the compound in plasma and colon homogenate were determined using a qualified liquid chromatography-triple quadrupole mass spectrometry (LC-MS/MS) method. This protocol was used to evaluate IC dosing of the following test compounds: Examples 1, 3, and 4.

[2] = Physical stability of crystalline embodiments of compound Ex. 1 (HT-XRPD/HR-XRPD after exposure); assay type: physicochemical; details: for physical stability in climate chamber: four days, HR-XRPD; for physical stability after exposure to AAC: AAC 40° C./70% RH, two days
Procedure: Long term slurry experiments were performed by suspending compound embodiment 1s in twenty neat solvents and stirred at room temperature for two weeks and at 50° C. for one week. Upon completion of the equilibration time, the residual solids were separated from the mother liquors. The solids were dried under ambient conditions and dried under vacuum (5 mBar) before being analyzed by HT-XRPD. Subsequently, the solids were exposed to accelerated aging conditions (40° C./70% relative humidity) for two days and again analyzed by HT-XRPD.
Embodiment 1s converted to hydrated embodiment 10 when it was exposed to 100% RH at 25° C. […] This behavior is attributable to an unequally strong binding of all the hydration/solvation molecules. In this case, embodiment 10 would have a less strongly bound second water molecule that would be lost under ambient conditions. More precisely, the physical stability of embodiment 1s was investigated in climate chambers by exposing a 20 mg sample of such embodiment to 40° C. and 70% relative humidity for four days, and another 20 mg sample of the same embodiment was exposed also for four days to 25° C. and 100% relative humidity. After four days, the various solid samples were analyzed by HR-XRPD, the crystal cell parameters were determined and the diffractograms were indexed. From bottom to top, the first diffractogram in FIG. 6 corresponds to embodiment 1s as starting material, and the second corresponds to the same form after a 4-day exposure to 40° C. and 70% relative humidity, noted as “1s 70 RH” in the same figure. […] Indexing for such form was not possible due to the small amount in which it was present. The third diffractogram corresponds to embodiment 1s after a 4-day exposure to 25° C. and 100% relative humidity, noted as “10” in the same figure. […] Upon dehydration, both embodiments is and 10 re-crystallized to the anhydrous form with a melting point of 148° C.

[3] = MDCK-MDR1 permeability assay; assay type: in vitro ADME; details: MDCK-MDR1, pH 7.4; @ 5 μM, with P-gp inhibitor elacridar (2 μM); read-out: MDCK-MDR1 P^eapp(A-B)
Procedure: Permeability measurements were conducted according to the Cyprotex protocol using the MDCK-MDR1 cell line obtained from the NIH (Rockville, Md., USA). […] The cells in this assay form a cohesive sheet of a single cell layer filing the surface area of the culture dish, also known as a confluent monolayer, and on day four the test compound was added to the apical side of the membrane and the transport of the compound across the monolayer was monitored over a time period of 60 min.
Test compounds were dissolved in DMSO at a concentration of 10 mM. The dosing solutions were prepared by diluting test compound with assay buffer (Hanks Balanced Salt Solution), pH 7.4, at a final concentration of 5 μM. For assessment of apical to basolateral (“A-B”) permeability, buffer was removed from the apical compartment and replaced with test compound dosing solution with or without the permeability glycoprotein (“PgP”, “P-gP”, “Pgp” or “P-gp”) inhibitor elacridar (2 μM). For assessment of basolateral to apical (“B-A”) permeability, buffer was removed from the companion plate and replaced with test compound dosing solution. […] The permeability coefficient (Papp) for each compound was calculated from the following equation: Papp=(dQ/dt)/(C0×S), where dQ/dt is the rate of permeation of the drug across the cells, C0 is the donor compartment concentration at time zero, and S is the area of the cell monolayer. […]

[4] = In vivo oral (p.o.) dosing, plasma and colon concentrations (Protocols 1 and 2); details: 25 mg/kg p.o., female C57BL/6 mice
Procedure: These protocols are described below under the heading In vivo Studies.
Three non-fasted female C57BL/6 mice were orally administered test compound at a dose of 25 mg/kg p.o. as a solution in 20% hydroxypropyl-beta-cyclodextrin (HPβCD) at a dose volume of 5 mL/kg. Blood samples were collected at 0.5, 2, and 4 h post dose via retro-orbital bleed or venipuncture of the dorsal metatarsal vein. Blood samples were collected into tubes containing anticoagulant (Heparin-Na) and placed on wet ice. The plasma fraction was separated by centrifugation and frozen at −20° C. for up to 4 h and −80° C. after 4 h unless analyzed shortly after sample collection. Colon samples were collected at 4 h post dose. […] Concentrations of the compound in plasma and colon homogenate were determined using a qualified liquid chromatography-triple quadrupole mass spectrometry (LC-MS/MS) method.
Three non-fasted female C57BL/6 mice were orally administered test compound at a dose of 25 mg/kg p.o. as a solution in 20% HPβCD at a dose volume of 5 mL/kg. […] The plasma fraction was separated by centrifugation and frozen at −20° C. for up to 4 h and −80° C. after 4 h unless analyzed shortly after sample collection. […] Concentrations of the compound in plasma and colon homogenate were determined using a qualified liquid chromatography-triple quadrupole mass spectrometry (LC-MS/MS) method.

Compound: N#CCCNC(=O)Cc1nc2cnc3[nH]ccc3c2n1[C@H]1CC[C@H](CC#N)CC1 [Ex. 4, N-(2-Cyanoethyl)-2-(1-((1r,4r)-4-(cyanomethyl)cyclohexyl)-1,6-dihydroimidazo[4,5-d]pyrrolo[2,3-b]pyridin-2-yl)acetamide]
- Plasma Concentration After i.c. Dosing, Mean ([1]; Time = 4 h): ^
- systemic exposure after i.c. dosing [1]: low systemic exposures

Compound: C[C@@H](O)c1nc2cnc3[nH]ccc3c2n1[C@H]1CC[C@H](CC#N)CC1 [C]
- Papp A→B [3]: 2.5 ×10⁻⁶ cm/s

Compound: CC(C)(O)CNC(=O)Cc1nc2cnc3[nH]ccc3c2n1[C@H]1CC[C@H](CC#N)CC1 [Embodiment 5]
- physical stability after exposure to AAC [2]: physically unstable

Compound: CC(C)(O)CNC(=O)Cc1nc2cnc3[nH]ccc3c2n1[C@H]1CC[C@H](CC#N)CC1 [Embodiment 4]
- physical stability under ambient conditions [2]: did not appear to be physically stable

Compound: CC(C)(O)CNC(=O)Cc1nc2cnc3[nH]ccc3c2n1[C@H]1CC[C@H](CC#N)CC1 [Embodiment 7]
- physical stability after exposure to AAC [2]: physically stable

Compound: N#CC[C@H]1CC[C@H](n2c(CC(=O)NCC3CC3)nc3cnc4[nH]ccc4c32)CC1 [Ex. 3, 2-(1-((1r,4r)-4-(Cyanomethyl)cyclohexyl)-1,6-dihydroimidazo[4,5-d]pyrrolo[2,3-b]pyridin-2-yl)-N-(cyclopropylmethyl)acetamide]
- Plasma Concentration After i.c. Dosing, Mean ([1]; Time = 2 h): ^
- Plasma Concentration After i.c. Dosing, Mean ([1]; Time = 4 h): ^
- systemic exposure after i.c. dosing [1]: low systemic exposures

Compound: CC(C)(O)CNC(=O)Cc1nc2cnc3[nH]ccc3c2n1[C@H]1CC[C@H](CC#N)CC1 [Embodiment 6]
- physical stability after exposure to AAC [2]: stable solid form

Compound: CC(C)(O)CNC(=O)Cc1nc2cnc3[nH]ccc3c2n1[C@H]1CC[C@H](CC#N)CC1 [Ex. 1, 2-(1-((1r,4r)-4-(Cyanomethyl)cyclohexyl)-1,6-dihydroimidazo[4,5-d]pyrrolo[2,3-b]pyridin-2-yl)-N-(2-hydroxy-2-methylpropyl)acetamide]
- Plasma Concentration After i.c. Dosing, Mean ([1]; Time = 2 h): ^
- Plasma Concentration After i.c. Dosing, Mean ([1]; Time = 4 h): ^
- systemic exposure after i.c. dosing [1]: low systemic exposures

Further lines, with some results ahead:

- physical stability under ambient conditions [2]: physically not stable
Compound: CC(C)(O)CNC(=O)Cc1nc2cnc3[nH]ccc3c2n1[C@H]1CC[C@H](CC#N)CC1 [embodiment 10]

- physical stability in climate chamber ([2]; 40° C. and 70% relative humidity): initial embodiment 1s had been recovered
Compound: CC(C)(O)CNC(=O)Cc1nc2cnc3[nH]ccc3c2n1[C@H]1CC[C@H](CC#N)CC1 [embodiment 1s]
- physical stability in climate chamber ([2]; 25° C. and 100% relative humidity): conversion of embodiment 1s into embodiment 10

- Plasma Concentration After p.o. Dosing, Mean ([4]; Time = 2 h): ^
- Plasma Concentration After p.o. Dosing, Mean ([4]; Time = 4 h): ^
Compound: N#CC[C@H]1CC[C@H](n2c(CC(=O)Nc3cc[nH]n3)nc3cnc4[nH]ccc4c32)CC1 [Ex. 11, 2-(1-((1r,4r)-4-(Cyanomethyl)cyclohexyl)-1,6-dihydroimidazo[4,5-d]pyrrolo[2,3-b]pyridin-2-yl)-N-(1H-pyrazol-3-yl)acetamide]

- physical stability after exposure to AAC [2]: converted to embodiment 3e
Compound: CC(C)(O)CNC(=O)Cc1nc2cnc3[nH]ccc3c2n1[C@H]1CC[C@H](CC#N)CC1 [embodiment 2]
